The source of these data is US20050095240A1, “NaCT as a target for lifespan expansion and weight reduction” (Medical College of Georgia Research, priority 2002, published 2005).

The target in one assay is drIndy (Drosophila melanogaster, UniProt Q9VVT2). Description: cell-based.
In the next assay the target is T1, mouse NaCT (Mus musculus, UniProt Q67BT3).
T1 sequence (Q67BT3 1-572): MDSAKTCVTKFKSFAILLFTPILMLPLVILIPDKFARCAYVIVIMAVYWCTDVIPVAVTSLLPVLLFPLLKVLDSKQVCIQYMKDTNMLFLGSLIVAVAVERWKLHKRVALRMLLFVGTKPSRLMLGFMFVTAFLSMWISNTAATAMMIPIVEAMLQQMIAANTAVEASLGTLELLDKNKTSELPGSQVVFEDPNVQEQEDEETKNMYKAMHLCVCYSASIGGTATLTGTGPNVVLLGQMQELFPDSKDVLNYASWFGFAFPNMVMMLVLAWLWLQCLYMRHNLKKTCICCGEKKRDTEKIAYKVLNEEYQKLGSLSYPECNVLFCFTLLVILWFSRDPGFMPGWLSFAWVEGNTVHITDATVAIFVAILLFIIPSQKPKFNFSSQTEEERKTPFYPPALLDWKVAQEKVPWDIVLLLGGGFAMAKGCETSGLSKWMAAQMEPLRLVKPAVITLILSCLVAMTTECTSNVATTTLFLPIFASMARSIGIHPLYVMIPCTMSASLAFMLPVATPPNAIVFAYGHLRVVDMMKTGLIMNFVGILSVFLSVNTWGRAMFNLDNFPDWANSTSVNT
Description: Mouse NaCT in X. laevis oocytes, two-microelectrode voltage clamp. It is filed as cell-based. As to conditions: 0.5 mM citrate; three oocytes; −50 mV. As to the method:
Functional expression of mouse and rat NaCTs in Xenopus laevis oocytes. Capped cRNA from the cloned mouse NaCT cDNA was synthesized using the mMESSAGE mMACHINE kit (Ambion Inc., Austin, Tex., USA). In some experiments, rat NaCT of Example 2 was used for functional expression. […] On the following day, oocytes were injected with 50 ng cRNA. Water-injected oocytes served as controls. The oocytes were used for electrophysiological studies 4-6 days after cRNA injection. Electrophysiological studies were performed by the two-microelectrode voltage-clamp method (Hatanaka et al., J. Clin. Invest. (2001);107: 1035-1043 and Nakanishi et al., J. Physiol. (2001);532: 297-304). […] The membrane potential was clamped at −50 mV. […] The oocytes were perifused with 50 μM [^14C]-citrate or 50 μM succinate (unlabeled plus radiolabeled succinate) and inward currents were monitored over a period of 10 min. […] The area within the curve describing the relationship between the time and inward current was integrated to calculate the charge transferred into the oocyte during incubation with citrate or succinate. The values for substrate transport and charge transfer were used to determine the charge-to-substrate ratio.

In assay [1] the target is T2, hNaDC3 (Homo sapiens, UniProt Q8WWT9).
T2 sequence (Q8WWT9 1-602): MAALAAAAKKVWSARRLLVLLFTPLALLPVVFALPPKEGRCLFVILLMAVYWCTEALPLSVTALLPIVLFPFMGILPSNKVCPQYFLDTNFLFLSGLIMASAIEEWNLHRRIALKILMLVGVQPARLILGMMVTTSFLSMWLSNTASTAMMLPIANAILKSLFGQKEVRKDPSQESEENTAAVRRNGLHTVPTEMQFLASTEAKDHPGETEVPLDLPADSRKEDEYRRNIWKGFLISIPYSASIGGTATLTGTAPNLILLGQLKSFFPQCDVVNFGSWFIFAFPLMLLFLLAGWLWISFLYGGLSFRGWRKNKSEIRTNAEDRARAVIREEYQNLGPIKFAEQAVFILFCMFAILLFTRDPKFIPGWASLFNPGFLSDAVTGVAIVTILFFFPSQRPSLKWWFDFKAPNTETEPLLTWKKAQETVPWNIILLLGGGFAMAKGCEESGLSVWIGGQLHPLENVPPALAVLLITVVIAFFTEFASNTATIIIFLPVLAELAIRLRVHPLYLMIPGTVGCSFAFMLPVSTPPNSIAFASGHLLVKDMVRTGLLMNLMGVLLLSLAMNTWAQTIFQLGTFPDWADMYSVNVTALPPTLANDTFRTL
Description: cell-based.

Assay [2] addresses T2, hNaDC3. As to conditions: read-out: Km for succinate, hNaDC3; as determined by Wang et al.; cited from earlier work.

Sequence of drIndy (Q9VVT2 19-590): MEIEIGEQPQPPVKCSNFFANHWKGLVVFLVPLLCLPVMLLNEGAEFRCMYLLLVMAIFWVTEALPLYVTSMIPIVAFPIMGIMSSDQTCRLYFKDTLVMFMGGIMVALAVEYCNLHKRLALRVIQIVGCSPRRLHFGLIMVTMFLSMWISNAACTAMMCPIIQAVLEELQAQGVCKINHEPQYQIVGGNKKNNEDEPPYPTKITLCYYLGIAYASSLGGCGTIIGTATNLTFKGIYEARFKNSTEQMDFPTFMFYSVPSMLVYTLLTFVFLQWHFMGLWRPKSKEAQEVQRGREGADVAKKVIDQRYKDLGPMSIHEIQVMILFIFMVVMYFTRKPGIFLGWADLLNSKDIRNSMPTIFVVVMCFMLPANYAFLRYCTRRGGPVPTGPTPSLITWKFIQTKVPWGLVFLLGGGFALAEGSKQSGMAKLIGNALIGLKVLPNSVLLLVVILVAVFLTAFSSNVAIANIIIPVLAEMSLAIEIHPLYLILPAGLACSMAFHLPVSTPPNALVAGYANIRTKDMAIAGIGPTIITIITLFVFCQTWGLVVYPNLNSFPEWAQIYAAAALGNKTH

Turning to `O=C(O)CC(O)(CC(=O)O)C(=O)O` [Citrate], the inhibition constant Ki – broadly, a measure of affinity in units of concentration, obtained from inhibition or displacement – on drIndy is 105 ± 35 µM; on hNaDC3 [1] it was 2100 ± 300 µM. At mouse NaCT, this molecule had a Citrate-induced inward current of 30±7 nA.

For `O=C(O)CCC(=O)O` [Succinate, succinate], on hNaDC3 [2], the Km – broadly, the substrate concentration at which the rate is half of its maximum – is 20 ± 1 µM.
